# Results as given in PMC5515969, “Effects of 31 FDA approved small-molecule kinase inhibitors on isolated rat liver mitochondria” (Archives of Toxicology, 2016).
# Read-outs that look alike come from different tables or passages of the source.
# Experiments:
# [1] = system: isolated rat liver mitochondria; test: Mitochondrial oxygen consumption (glutamate/malate or succinate driven, state 4 and state 3); type: biochemical; conditions: DMSO treated samples set as 1; as to State 3 respiration driven by succinate at 10XCmax: key: 0 indicates that the drug had no effects (negative); as to State 3 respiration driven by succinate at 1XCmax: key: 0 indicates that the drug had no effects (negative)
# Outline: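 Oxygen uptake on glutamate/malate or on succinate defined state 4; ADP added 3 min later gave state 3. Mitochondria isolated from rat liver by differential centrifugation, adjusted to 1 mg/ml and pretreated 5 min with inhibitor (0.1% DMSO final). Values relative to DMSO control, set to 1.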
# [2] = system: RCC I; test: RCC I activity in submitochondrial particles; type: biochemical, rat; design: key to RCC I at 10XCmax / RCC I at 100XCmax / RCC I at 50XCmax / RCC I at 30XCmax / RCC I at 20XCmax: activity relative to DMSO-treated controls (control set as 1 = 100%)
# Outline: (§1)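 Rat submitochondrial particles (1 mg/ml) were treated with test compounds for 15 min. RCC IV, like RCC III, was monitored at 550 nm every 10 s for 2 min, and RCC I/V at 340 nm each minute for 6 min. DMSO samples defined unit activity.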
# [3] = molecular target: T1, RCC II (Rattus norvegicus, UniProt P21913+Q641Z9+Q6PCT8+Q920L2); test: RCC II activity in submitochondrial particles; type: biochemical; design: key: activity relative to DMSO-treated controls (control set as 1 = 100%); conditions: relative to DMSO treated samples
# T1 construct: Submitochondrial particles were prepared by subjecting the intact mitochondria to three successive freeze–thaw cycles; from tissue; host or cells: rat liver mitochondria, used as submitochondrial particles
# Outline: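 Activity relative to DMSO (set as 1) after 15-min exposure of submitochondrial particles (1 mg/ml) to compound. RCC I is defined as rotenone-sensitive activity and RCC II is followed at 600 nm over 6 min.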
# [4] = system: RCC IV; test: RCC IV activity in submitochondrial particles; type: biochemical, rat; design: key to RCC IV at 50XCmax / RCC IV at 100XCmax: activity relative to DMSO-treated controls (control set as 1 = 100%); conditions: for RCC IV at 50XCmax: relative to DMSO treated samples, in %
# Outline: as §1
# [5] = system: RCC V; test: RCC V activity in submitochondrial particles; type: biochemical, rat; conditions: for RCC V at 5XCmax / RCC V at 50XCmax: relative to DMSO treated samples; as to RCC V at 5XCmax: key: 0 indicates that the drug had no effects (negative)
# Outline: as §1
# [6] = system: isolated rat liver mitochondria; test: Mitochondrial inner membrane potential (MMP), Rhodamine 123; type: biochemical; conditions: difference in signal between KI and DMSO treated samples at the end of experiments
# Source text: Fig. 3 KI effects on mitochondrial inner membrane potential (MMP). […] In a, c, data are means and standard derivations from three separate experiments. *p < 0.05 as compared to DMSO-treated samples at the end of experiments. In b, data are means of two independent experiments
# [7] = system: isolated rat liver mitochondria; test: Mitochondrial swelling (absorbance at 535 nm); type: biochemical; conditions: difference in signal between KI and DMSO treated samples at the end of experiments; as to Swelling 5XCmax: key: 0 indicates that the drug had no effects (negative)
# [8] = system: isolated rat liver mitochondria; conditions: positive control alamethicin treated samples
# [9] = cited from earlier work
# [10] = cited from earlier work; for Labeling for DILI: BBW: black box warning, W&P: Warnings and Precautions; for labeling for DILI: W&P warnings and precautions, BBW black box warnings
# [11] = relative to DMSO treated samples
# [12] = therapeutic maximal blood concentration, ref product labeling
# [13] = 1 = DILI positive, 0 = negative, ref product labeling
# [14] = 100-fold Cmax, 15 min, DMSO-treated = 100
# T1 sequence (Q920L2 35-656): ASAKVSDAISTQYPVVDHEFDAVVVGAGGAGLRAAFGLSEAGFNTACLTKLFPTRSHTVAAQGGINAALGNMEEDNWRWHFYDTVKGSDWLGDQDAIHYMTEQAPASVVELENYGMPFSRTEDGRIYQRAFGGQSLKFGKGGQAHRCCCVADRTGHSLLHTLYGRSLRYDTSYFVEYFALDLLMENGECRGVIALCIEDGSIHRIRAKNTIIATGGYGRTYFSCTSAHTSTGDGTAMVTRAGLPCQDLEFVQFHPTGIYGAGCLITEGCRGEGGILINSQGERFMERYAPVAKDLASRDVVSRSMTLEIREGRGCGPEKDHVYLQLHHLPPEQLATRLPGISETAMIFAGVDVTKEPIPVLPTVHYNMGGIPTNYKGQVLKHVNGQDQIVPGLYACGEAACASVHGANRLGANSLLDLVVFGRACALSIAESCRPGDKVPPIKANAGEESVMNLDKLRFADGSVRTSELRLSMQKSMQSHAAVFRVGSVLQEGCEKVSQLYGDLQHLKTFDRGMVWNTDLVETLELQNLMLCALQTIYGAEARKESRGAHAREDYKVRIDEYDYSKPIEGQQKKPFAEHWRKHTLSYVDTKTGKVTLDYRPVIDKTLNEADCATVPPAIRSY
# T1 sequence (P21913 31-282): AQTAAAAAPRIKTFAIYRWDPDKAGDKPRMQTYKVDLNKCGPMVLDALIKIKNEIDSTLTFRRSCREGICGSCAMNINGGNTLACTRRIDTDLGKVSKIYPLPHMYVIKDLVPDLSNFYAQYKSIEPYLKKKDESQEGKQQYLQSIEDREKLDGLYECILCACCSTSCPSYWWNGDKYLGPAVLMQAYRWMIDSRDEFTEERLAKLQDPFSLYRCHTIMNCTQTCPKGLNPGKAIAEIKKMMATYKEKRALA
# T1 sequence (Q641Z9 1-169): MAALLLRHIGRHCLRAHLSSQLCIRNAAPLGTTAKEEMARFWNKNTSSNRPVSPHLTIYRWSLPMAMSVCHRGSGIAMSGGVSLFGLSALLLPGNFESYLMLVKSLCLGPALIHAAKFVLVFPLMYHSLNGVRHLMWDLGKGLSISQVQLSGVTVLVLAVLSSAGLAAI
# T1 sequence (Q6PCT8 57-159): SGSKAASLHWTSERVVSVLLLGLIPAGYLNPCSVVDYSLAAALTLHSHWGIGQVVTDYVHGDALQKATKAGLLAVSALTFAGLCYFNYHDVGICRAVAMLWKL
compound,measurement,setting,value
CNC(=O)c1ccccc1Sc1ccc2c(/C=C/c3ccccn3)n[nH]c2c1 [Axitinib],State 3 respiration driven by glutamate/malate at 1XCmax,[1],0
same,State 3 respiration driven by succinate at 1XCmax,[1],0
same,State 4 respiration driven by glutamate/malate at 1XCmax,[1],0
same,State 4 respiration driven by succinate at 1XCmax,[1],0
same,State 3 respiration driven by glutamate/malate at 2.5XCmax,[1],0
same,State 3 respiration driven by succinate at 2.5XCmax,[1],0
same,State 4 respiration driven by glutamate/malate at 2.5XCmax,[1],0
same,State 4 respiration driven by succinate at 2.5XCmax,[1],0
same,State 3 respiration driven by glutamate/malate at 5XCmax,[1],0
same,State 3 respiration driven by succinate at 5XCmax,[1],0
same,State 4 respiration driven by glutamate/malate at 5XCmax,[1],0
same,State 4 respiration driven by succinate at 5XCmax,[1],0
same,State 3 respiration driven by glutamate/malate at 10XCmax,[1],0
same,State 3 respiration driven by succinate at 10XCmax,[1],0
same,State 4 respiration driven by glutamate/malate at 10XCmax,[1],0
same,State 4 respiration driven by succinate at 10XCmax,[1],0
same,State 3 respiration driven by glutamate/malate at 20XCmax,[1],0
same,State 3 respiration driven by succinate at 20XCmax,[1],0
same,State 4 respiration driven by glutamate/malate at 20XCmax,[1],0
same,State 4 respiration driven by succinate at 20XCmax,[1],0
same,State 3 respiration driven by glutamate/malate at 30XCmax,[1],0
same,State 3 respiration driven by succinate at 30XCmax,[1],0
same,State 4 respiration driven by glutamate/malate at 30XCmax,[1],0
same,State 4 respiration driven by succinate at 30XCmax,[1],0
same,State 3 respiration driven by glutamate/malate at 50XCmax,[1],0
same,State 3 respiration driven by succinate at 50XCmax,[1],0
same,State 4 respiration driven by glutamate/malate at 50XCmax,[1],0
same,State 4 respiration driven by succinate at 50XCmax,[1],0
same,State 3 respiration driven by glutamate/malate at 100XCmax,[1],0
same,State 3 respiration driven by succinate at 100XCmax,[1],0
same,State 4 respiration driven by glutamate/malate at 100XCmax,[1],0
same,State 4 respiration driven by succinate at 100XCmax,[1],0
same,RCC I at 10XCmax,[2]; [11],0
same,RCC II at 1.0XCmax,[3],0
same,RCC II at 2.5XCmax,[3],0
same,RCC II at 5XCmax,[3],0
same,RCC II at 10XCmax,[3],0
same,RCC II at 20XCmax,[3],0
same,RCC II at 30XCmax,[3],0
same,RCC II at 50XCmax,[3],0
same,RCC II at 100XCmax,[3],0
same,RCC IV at 50XCmax,[4],0
same,RCC V at 5XCmax,[5],0
same,RCC V at 50XCmax,[5],0
same,MMP measured by Rhodamine 123 at 1XCmax,[6],0
same,MMP measured by Rhodamine 123 at 2.5XCmax,[6],0
same,MMP measured by Rhodamine 123 at 5XCmax,[6],0
same,MMP measured by Rhodamine 123 at 10XCmax,[6],0
same,MMP measured by Rhodamine 123 at 20XCmax,[6],0
same,MMP measured by Rhodamine 123 at 30XCmax,[6],0
same,MMP measured by Rhodamine 123 at 50XCmax,[6],0
same,MMP measured by Rhodamine 123 at 100XCmax,[6],0
same,Swelling 1XCmax,[7],0
same,Swelling 2.5XCmax,[7],0
same,Swelling 5XCmax,[7],0
same,Swelling 10XCmax,[7],0
same,Swelling 20XCmax,[7],0
same,Swelling 30XCmax,[7],0
same,Swelling 50XCmax,[7],0
same,Swelling 100XCmax,[7],0
same,Cytochrome c release 1XCmax,[8],0
same,Cytochrome c release 2.5XCmax,[8],0
same,Cytochrome c release 5XCmax,[8],0
same,Cytochrome c release 10XCmax,[8],0
same,Cytochrome c release 20XCmax,[8],0
same,Cytochrome c release 30XCmax,[8],0
same,Cytochrome c release 50XCmax,[8],0
same,Cytochrome c release 100XCmax,[8],0
same,Cmax,"[9]; human therapeutic Cmax at FDA recommended dosages, ref product labeling and drug approval packages at the official FDA website",70 nM
same,Cmax,[9]; [12],27.8 ng/mL
same,DILI potential (based on labeling),[10]; [13],1
same,Labeling for DILI,[10]; ref product labeling,W&P: ALT↑
same,labeling for DILI,[10]; ref FDA product labeling,W&P: ALT↑/monitoring
same,DILI potential (based on labeling),[10]; ref FDA product labeling,1
COc1cc(Nc2c(C#N)cnc3cc(OCCCN4CCN(C)CC4)c(OC)cc23)c(Cl)cc1Cl [Bosutinib],State 3 respiration driven by glutamate/malate at 1XCmax,[1],0
same,State 3 respiration driven by succinate at 1XCmax,[1],0
same,State 4 respiration driven by glutamate/malate at 1XCmax,[1],0
same,State 4 respiration driven by succinate at 1XCmax,[1],0
same,State 3 respiration driven by glutamate/malate at 2.5XCmax,[1],0
same,State 3 respiration driven by succinate at 2.5XCmax,[1],0
same,State 4 respiration driven by glutamate/malate at 2.5XCmax,[1],0
same,State 4 respiration driven by succinate at 2.5XCmax,[1],0
same,State 3 respiration driven by glutamate/malate at 5XCmax,[1],0
same,State 3 respiration driven by succinate at 5XCmax,[1],0
same,State 4 respiration driven by glutamate/malate at 5XCmax,[1],0
same,State 4 respiration driven by succinate at 5XCmax,[1],0
same,State 3 respiration driven by glutamate/malate at 10XCmax,[1],0
same,State 3 respiration driven by succinate at 10XCmax,[1],0
same,State 4 respiration driven by glutamate/malate at 10XCmax,[1],0
same,State 4 respiration driven by succinate at 10XCmax,[1],0
same,State 3 respiration driven by glutamate/malate at 20XCmax,[1],0
same,State 3 respiration driven by succinate at 20XCmax,[1],0
same,State 4 respiration driven by glutamate/malate at 20XCmax,[1],0
same,State 4 respiration driven by succinate at 20XCmax,[1],0
same,State 3 respiration driven by glutamate/malate at 30XCmax,[1],0
same,State 3 respiration driven by succinate at 30XCmax,[1],0
same,State 4 respiration driven by glutamate/malate at 30XCmax,[1],0
same,State 4 respiration driven by succinate at 30XCmax,[1],0
same,State 3 respiration driven by glutamate/malate at 50XCmax,[1],0
same,State 3 respiration driven by succinate at 50XCmax,[1],0
same,State 4 respiration driven by glutamate/malate at 50XCmax,[1],0
same,State 4 respiration driven by succinate at 50XCmax,[1],0
same,State 3 respiration driven by glutamate/malate at 100XCmax,[1],0
same,State 3 respiration driven by succinate at 100XCmax,[1],0
same,State 4 respiration driven by glutamate/malate at 100XCmax,[1],0
same,State 4 respiration driven by succinate at 100XCmax,[1],0
same,RCC I at 10XCmax,[2]; [11],0
same,RCC activity I,[2]; [14],88.03 ± 3.01 % of control
same,RCC I at 100XCmax,"[2]; 100XCmax, relative to DMSO treated samples",88.03±3.01
same,RCC II at 1.0XCmax,[3],0
same,RCC II at 2.5XCmax,[3],0
same,RCC II at 5XCmax,[3],0
same,RCC II at 10XCmax,[3],0
same,RCC II at 20XCmax,[3],0
same,RCC II at 30XCmax,[3],0
same,RCC II at 50XCmax,[3],0
same,RCC II at 100XCmax,[3],0
same,RCC IV at 50XCmax,[4],0
same,RCC activity IV,[4]; [14],101.25 ± 2.26 % of control
same,RCC V at 5XCmax,[5],0
same,RCC V at 50XCmax,[5],0
same,RCC activity V,[5]; [14],91.53 ± 6.49 % of control
same,MMP measured by Rhodamine 123 at 1XCmax,[6],0
same,MMP measured by Rhodamine 123 at 2.5XCmax,[6],0
same,MMP measured by Rhodamine 123 at 5XCmax,[6],0
same,MMP measured by Rhodamine 123 at 10XCmax,[6],0
same,MMP measured by Rhodamine 123 at 20XCmax,[6],0
same,MMP measured by Rhodamine 123 at 30XCmax,[6],0
same,MMP measured by Rhodamine 123 at 50XCmax,[6],0
same,MMP measured by Rhodamine 123 at 100XCmax,[6],0
same,Swelling 1XCmax,[7],0
same,Swelling 2.5XCmax,[7],0
same,Swelling 5XCmax,[7],0
same,Swelling 10XCmax,[7],0
same,Swelling 20XCmax,[7],0
same,Swelling 30XCmax,[7],0
same,Swelling 50XCmax,[7],0
same,Swelling 100XCmax,[7],0
same,Cytochrome c release 1XCmax,[8],0
same,Cytochrome c release 2.5XCmax,[8],0
same,Cytochrome c release 5XCmax,[8],0
same,Cytochrome c release 10XCmax,[8],0
same,Cytochrome c release 20XCmax,[8],0
same,Cytochrome c release 30XCmax,[8],0
same,Cytochrome c release 50XCmax,[8],0
same,Cytochrome c release 100XCmax,[8],0
same,Cmax,[9]; [12],200 ng/mL
same,DILI potential (based on labeling),[10]; [13],1
same,Labeling for DILI,[10]; ref product labeling,W&P: ALT↑
same,labeling for DILI,[10]; ref FDA product labeling,W&P: ALT↑/monitoring
same,DILI potential (based on labeling),[10]; ref FDA product labeling,1
